Test results as given in patent US5017618A, “Labile derivatives of ketone analogs of 3-substituted-1-alkylamino-2-propanols and their use as beta-adrenergic blockers” (priority 1989, dated 1991).
Counter-ions that a name gives are not always drawn.

Legend:
[1] = system: rabbit cornea (intraocular enzymes); type: in vivo; settings: topical, 2% (w/v) aqueous solution
Protocol: The tissue was homogenized in an alkaline buffer (pH 10.0) to give 10% (w/v) homogenate, and extracted twice with equal volumes of methylene chloride/diethyl ether mixture (1:4, v/v) by shaking for 15 minutes. The organic layer was separated, then re-extractedwith an equal volume of aqueous 0.1M hydrochloric acid solution. The aqueous phase was made alkaline (pH 10.0) and extracted with methylene chloride/diethyl ether, the organic layer was transferred to a deactivated glass vial, and the solvent was evaporated at reduced pressure under nitrogen stream. The residue was dissolved in 0.01M hydrochloric acid solution and analyzed by high-performance liquid chromatography (HPLC). A Supelcosil LC-8-DB analytical column (7.5 cm×4.6 mm i.d., 3 μm particle size) and mobile phase (1.5 mL/min flow rate) consisting of 30% acetonitrile in an aqueous buffer solution of 0.02M monobasic potassium phosphate (adjusted to pH 3.0 with phosphoric acid) and 0.01 (v/v) triethylamine. UV detection at 280 nm was applied. […] The same experiment was carried out by administering 1-(isopropylamino)-3-(2-allylphenoxy)-2-propanone oxime hydrochloride salt in 2% (w/v) aqueous solution. […]

[2] = system: resting heart rate of rats; assay: Effect on resting heart rate in rats; type: in vivo, rat (male Sprague-Dawley); settings: 6 mg/kg i.v. (Example 6)
Protocol: (§1) Groups of seven male Sprague-Dawley rats weighing 150-250 g were used. Each animal was anesthetized with sodium pentobarbital (50 mg/kg) and the jugular vein was cannulated with PE50 tubing. This cannula was subcutaneously threaded around the neck and exteriorized dorsally. The cannula was filled with heparin solution ([…]) and sealed with a solid 22-gauge stylet. Animals were housed in individual stainless steel cages and at least 24 hours were allowed for recovery from the surgery. Food and water were provided ad libitum. On the day of the experiment, the heart rate of each rat was monitored with a plethsmograph and the data recorded on a Physioscribe II recorder. One hour was allowed as an equilibration period before any drugs were administered. Drugs were dissolved in normal saline as 0.3% solution and were administered intravenously at a dose of 6 mg/kg. The resting heart rate was then recorded after 1, 3, 5, 10 and 15 minutes following i.v. injection. […] A control group of seven animals was intravenously administered saline solution and was treated exactly in the same manner as the drug-treated groups. The significance of the difference between the effect of saline solution and the drugs under investigation on the resting heart rate and on isoprenaline tachycardia was analyzed using the student's "t" test. Values are given as mean ±S.E. of the mean. […] (.) carteolol HCl, 1c; .circle. propranolone ketoxime HCl, 6a; (.gradient.) timolone ketoxime oxalate, 6b; (Δ) N-isopropyl timolone ketoxime HCl, 6d; carteolone oxime HCl, 6c; and (---) saline solution. […] Drugs were administered to groups of 5 rats using a stomach tube and the heart rate was recorded for 1 hour. […] A control group of 5 rats was treated exactly in the same manner after the oral administration of the appropriate volume of saline solution.

[3] = system: Intraocular Pressure (IOP) of Rabbits; assay: Effect on the Intraocular Pressure (IOP) of Rabbits; type: in vivo, rabbit (male New Zealand albino); settings: for ocular hypotensive activity (in words): topical, dose levels used
Protocol: The animals were kept in individual cages with free access to food and water. Intraocular pressure was measured using a Digilab model 30R pneumatonometer. The pneumatonometer readings were checked at least twice a day using the Digilab calibration verifier. All measurements were obtained from unrestrained, unanesthetized rabbits. One drop of 0.5% propacaine (Ophthetic-Allergen Pharmaceuticals, Inc.) diluted 1:2 with saline was instilled in each eye immediately prior to IOP measurement. Drugs were administered as 1 or 2.5% solution in buffer pH 7.4 or in saline in both eyes of a group of at least four rabbits. Another group of at least three rabbits served as control and was administered the carrier only. […] Values are given as means ± standard error (S.E.) of the mean. The significance of the change was determined using the student's t-test.

[4] = system: isoprenaline-induced tachycardia; assay: Effect on isoprenaline-induced tachycardia in rats (β-adrenergic antagonist activity); type: in vivo, rat (male Sprague-Dawley); settings: for β-antagonist activity: dose levels used; for β-adrenergic antagonist activity against isoprenaline-tachycardia: rats, 6 mg/kg i.v., isoprenaline 50 μg/kg s.c., FIG. 1
Protocol: as §1

[5] = propranolol enantiomers; cited from earlier work
Hygroscopicity = type: physicochemical; settings: crystals
Protocol: In a 50 mL round-bottomed flask was placed a solution of oxalic acid (0.20 g, 2.22 mmole) in ether (10 mL). To this solution was added a solution of 5b (0.43 g, 1.3 mmole) in ether. The mixture was stirred at room temperature for 1 hour. The white non-hygroscopic crystals were filtered and dried in vacuo. Yield 0.53 g (97%), m.p. 165°-166° (dec.). NMR (CDCl3) δ 5.3 (s, 2H), 3.9-3.7 (m, 4H), 3.6-3.4 (m, 6H), 1.1 (s, 9H). Anal. (C18 H25 O7 N5), C,H,N.

[6] = system: ocular tissues of rabbits; assay: In vivo distribution-metabolism in ocular tissues of rabbits; settings: rabbit, in vivo
Protocol: Adult male New Zealand albino rabbits weighing 2.5-3.5 kg were used. Standard doses of 100 μl of 1% solution of the drugs in saline solution were administered topically to both eyes of each rabbit. After appropriate time intervals (30, 60 and 120 minutes), the animals were sacrificed. Aqueous humor was obtained by making a single puncture at the limbus using a 25 g×5/8" needle attached to 1 cm^3 syringe. Then the cornea and the iris-ciliary body were isolated. The tissues were pooled and homogenized using a Tekmar SDT tissuemizer in ice cold perchloric acid (0.05M) which contained 0.05% sodium metabisulfite as antioxidant. Samples were then rehomogenized in CH3 OH to prepare 10% homogenates, transferred to micro-filters and centrifuged for 20 minutes at 10000 r/minute to precipitate proteins. Aqueous humor was analyzed as such without any further dilution. Aliquots of 5-20 μl of the 10% tissue homogenate samples were analyzed by HPLC.

[7] = Table 3, 1% solution, time zero

Compound: C=CCc1ccccc1OCC(CNC(C)C)=NO.Cl [1-(isopropylamino)-3-(2-allylphenoxy)-2-propanone oxime hydrochloride]
- metabolites identified in cornea [1]: showed the presence of the two oxime isomers, the corresponding ketone 1-(isopropylamino)-3-(2-allylphenoxy)-2-propanone, and the β-adrenergic blocker 1-(isopropylamino)-3-(2-allylphenoxy)-2-propanol(alprenolol)

Compound: CC(C)(C)NCC(O)COc1cccc2c1CCC(=O)N2 (centres unmarked) [Compound 1c, reference compound]
- activity on resting heart rate (negative chronotropic action) [2]: lowest activity on the heart rate of rats

Compound: CC(C)NCC(COc1nsnc1N1CCOCC1)=NO.Cl [Compound 6d, 1-(Isopropylamino)-3-[(4-morpholino-1,2,5-thiadiazol-3-yl)oxy]-2-propanone oxime Hydrochloride]
- activity on resting heart rate (negative chronotropic action) [2]: less active
- activity ([3]; selected dosage level): inactive at the selected dosage level
- ocular hypotensive activity (in words) ([3]; rabbits): low activity at the dose levels used
- β-antagonist activity [4]: some β-antagonist activity
- β-adrenergic antagonist activity against isoprenaline-tachycardia [4]: least active

Compound: CC(C)(C)NCC(O)COc1nsnc1N1CCOCC1 (centres unmarked) [Timolol maleate 1b, reference compound]
- % change after treatment (IOP) ([3]; Table 3, 1% solution, 30 min.): -10.93%
- IOP, drug-treated ([3]; Table 3, 1% solution, 30 min.): 26.00 ± 1.23 mm/Hg
- % change after treatment (IOP) ([3]; Table 3, 1% solution, 1 hr.): 6.65%
- IOP, drug-treated ([3]; Table 3, 1% solution, 1 hr.): 27.25 ± 1.12 mm/Hg
- % change after treatment (IOP) ([3]; Table 3, 1% solution, 2 hr.): 6.78%
- IOP, drug-treated ([3]; Table 3, 1% solution, 2 hr.): 27.21 ± 0.58 mm/Hg
- % change after treatment (IOP) ([3]; Table 3, 1% solution, 3 hr.): 14.35%
- IOP, drug-treated ([3]; Table 3, 1% solution, 3 hr.): 25.00 ± 0.87 mm/Hg
- % change after treatment (IOP) ([3]; Table 3, 1% solution, 4 hr.): 14.77%
- IOP, drug-treated ([3]; Table 3, 1% solution, 4 hr.): 24.88 ± 1.00 mm/Hg
- % change after treatment (IOP) ([3]; Table 3, 1% solution, 5 hr.): 16.92%
- IOP, drug-treated ([3]; Table 3, 1% solution, 5 hr.): 24.25 ± 1.18 mm/Hg
- % change after treatment (IOP) ([3]; Table 3, 1% solution, 6 hr.): 12.37%
- IOP, drug-treated ([3]; Table 3, 1% solution, 6 hr.): 25.58 ± 0.85 mm/Hg
- % change after treatment (IOP) ([3]; Table 3, 1% solution, 8 hr.): 9.80%
- IOP, drug-treated ([3]; Table 3, 1% solution, 8 hr.): 26.33 ± 0.40 mm/Hg
- % change after treatment (IOP) [3, 7]: 0.00%
- IOP, drug-treated [3, 7]: 29.19 ± 0.78 mm/Hg

Compound: CC(C)NC[C@H](O)COc1cccc2ccccc12 [S-(-)-isomer]
- potency relative to R-(+)-enantiomer [5]: about 100 times

Compound: CC(C)(C)NCC(COc1nsnc1N1CCOCC1)=NO.O=C(O)C(=O)O [Timolone oxime oxalate 6b, 1-(tert-Butylamino)-3-[(4-morpholino-1,2,5-thiadiazol-3-yl)oxy]-2-propanoneoxime oxalate]
- activity on resting heart rate (negative chronotropic action) [2]: highest activity
- hygroscopicity (Hygroscopicity): non-hygroscopic
- % change after treatment (IOP) ([3]; Table 3, 1% solution, 30 min.): -2.43%
- IOP, drug-treated ([3]; Table 3, 1% solution, 30 min.): 27.75 ± 0.68 mm/Hg
- % change after treatment (IOP) ([3]; Table 3, 1% solution, 1 hr.): -14.56%
- IOP, drug-treated ([3]; Table 3, 1% solution, 1 hr.): 24.30 ± 0.63 mm/Hg
- % change after treatment (IOP) ([3]; Table 3, 1% solution, 2 hr.): -15.61%
- IOP, drug-treated ([3]; Table 3, 1% solution, 2 hr.): 24.00 ± 0.44 mm/Hg
- % change after treatment (IOP) ([3]; Table 3, 1% solution, 3 hr.): -11.64%
- IOP, drug-treated ([3]; Table 3, 1% solution, 3 hr.): 25.13 ± 0.96 mm/Hg
- IOP, drug-treated ([3]; Table 3, 1% solution, 4 hr.): 26.93 ± 0.48 mm/Hg
- % change after treatment (IOP) ([3]; Table 3, 1% solution, 5 hr.): -5.49%
- IOP, drug-treated ([3]; Table 3, 1% solution, 5 hr.): 26.88 ± 0.52 mm/Hg
- % change after treatment (IOP) ([3]; Table 3, 1% solution, 6 hr.): +1.20%
- IOP, drug-treated ([3]; Table 3, 1% solution, 6 hr.): 28.78 ± 0.91 mm/Hg
- % change after treatment (IOP) ([3]; Table 3, 1% solution, 8 hr.): -7.42%
- IOP, drug-treated ([3]; Table 3, 1% solution, 8 hr.): 26.33 ± 0.40 mm/Hg
- % change after treatment (IOP) [3, 7]: 0.00%
- IOP, drug-treated [3, 7]: 28.44 ± 0.63 mm/Hg
- ocular hypotensive activity compared with parent β-blocker ([3]; same dose levels, rabbits): faster in its onset and shorter in its duration than timolol 1b itself
- ocular hypotensive activity (in words) ([3]; rabbits): significant ocular hypotensive activity
- β-adrenergic antagonist activity against isoprenaline-tachycardia [4]: most effective

Compound: CC(C)(C)NCC(O)COc1cccc2c1CCC(=O)N2 (centres unmarked) [carteolol]
- detection of parent β-adrenergic antagonist in eye compartments [6]: could not be found in any of the eye compartments

Compound: CC(C)(C)NCC(COc1cccc2c1CCC(=O)N2)=NO [Compound 6c, 5-[3-(tert-Butylaminno)-2-(hydroxyimino)propoxy]-3,4-dihydrocarbostyril Hydrochloride]
- activity on resting heart rate (negative chronotropic action) [2]: less active
- ocular hypotensive activity (in words) ([3]; rabbits): low activity at the dose levels used
- β-antagonist activity [4]: some β-antagonist activity
- β-adrenergic antagonist activity against isoprenaline-tachycardia [4]: least active

Compound: CC(C)NCC(O)COc1cccc2ccccc12 (centres unmarked) [Propranolol HCl 1a, reference compound]
- % change after treatment (IOP) ([3]; 1% solution, 30 min.): -9.10%
- IOP, treated ([3]; 1% solution, 30 min.): 28.0 ± 0.56 mm/Hg
- % change after treatment (IOP) ([3]; 1% solution, 60 min.): -10.39%
- IOP, treated ([3]; 1% solution, 60 min.): 27.6 ± 0.62 mm/Hg
- % change after treatment (IOP) ([3]; 1% solution, 2 hrs.): -5.52%
- IOP, treated ([3]; 1% solution, 2 hrs.): 29.1 ± 0.38 mm/Hg
- % change after treatment (IOP) ([3]; 1% solution, 3 hrs.): -11.04%
- IOP, treated ([3]; 1% solution, 3 hrs.): 27.4 ± 0.54 mm/Hg
- % change after treatment (IOP) ([3]; 1% solution, 4 hrs.): -8.44%
- IOP, treated ([3]; 1% solution, 4 hrs.): 28.2 ± 0.48 mm/Hg
- % change after treatment (IOP) ([3]; 1% solution, 6 hrs.): -5.84%
- IOP, treated ([3]; 1% solution, 6 hrs.): 29.0 ± 0.45 mm/Hg
- % change after treatment (IOP) ([3]; 1% solution, 8 hrs.): -1.95%
- IOP, treated ([3]; 1% solution, 8 hrs.): 30.2 ± 0.43 mm/Hg
- % change after treatment (IOP) ([3]; 1% solution, time zero): 0.00%
- IOP, treated ([3]; 1% solution, time zero): 30.8 ± 0.40 mm/Hg
- % change after treatment (IOP) ([3]; 2.5% solution, 30 min.): +8.66%
- IOP, treated ([3]; 2.5% solution, 30 min.): 27.6 ± 0.56 mm/Hg
- % change after treatment (IOP) ([3]; 2.5% solution, 60 min.): +9.84%
- IOP, treated ([3]; 2.5% solution, 60 min.): 27.9 ± 0.60 mm/Hg
- % change after treatment (IOP) ([3]; 2.5% solution, 2 hrs.): +1.18%
- IOP, treated ([3]; 2.5% solution, 2 hrs.): 25.7 ± 0.55 mm/Hg
- % change after treatment (IOP) ([3]; 2.5% solution, 3 hrs.): +1.18%
- IOP, treated ([3]; 2.5% solution, 3 hrs.): 25.7 ± 0.39 mm/Hg
- % change after treatment (IOP) ([3]; 2.5% solution, 4 hrs.): +0.79%
- IOP, treated ([3]; 2.5% solution, 4 hrs.): 25.6 ± 0.46 mm/Hg
- % change after treatment (IOP) ([3]; 2.5% solution, 6 hrs.): 0.00%
- IOP, treated ([3]; 2.5% solution, 6 hrs.): 25.4 ± 0.54 mm/Hg
- % change after treatment (IOP) ([3]; 2.5% solution, 8 hrs.): -0.79%
- IOP, treated ([3]; 2.5% solution, 8 hrs.): 25.2 ± 0.68 mm/Hg
- % change after treatment (IOP) ([3]; 2.5% solution, time zero): 0.00%
- IOP, treated ([3]; 2.5% solution, time zero): 25.4 ± 0.56 mm/Hg

Compound: CC(C)NC[C@@H](O)COc1cccc2ccccc12 [R-(+)-enantiomer]
- metabolism relative to S-form [5]: metabolized faster than the S-form
